Reference: patent publication US6355799B1, “Substituted benzene compounds, process for their preparation, and herbicidal and defoliant compositions containing them” (ISK Americas Incorporated, priority 1997, dated 2002)

Assays:
Assay type in all cases: in vivo
[1] = system: upland rice (Oryza sp., var. Tebonnet, RICE); assay: Post-emerge test, crop safety; details: rating scale 0-100 (0 no damage, 100 complete death), 14 days after application
How it was run: (§1)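 Rating: 0–100 visual injury, 14 DAA. Application: acetone, 187 l/ha, 15–1000 g ai/ha, flat-fan track sprayer with nozzle 40–45 cm above soil or canopy. Post-emerge runs used 0.25% v/v surfactant on 2–3 leaf plants.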

[2] = system: field corn (Zea mays L., var. Dekalb 535, CORN); assay: Post-emerge test, crop safety; details: rating scale 0-100 (0 no damage, 100 complete death), 14 days after application
How it was run: as §1

[3] = system: upland rice (Oryza sp., var. Tebonnet, RICE); assay: Pre-emerge test, crop safety; details: rating scale 0-100, 14 days after application
How it was run: (§2)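 Plants grown in 10 cm pots of sandy loam mix received acetone-dissolved compounds through a moving flat-fan nozzle. Doses ranged from 15 to 1000 g ai/ha. Pre-emerge pots were seeded one day earlier, post-emerge pots 8–21 days earlier. Fourteen days on, each pot was graded 0–100 for damage.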

[4] = system: field corn (Zea mays L., var. Dekalb 535, CORN); assay: Pre-emerge test, crop safety; details: rating scale 0-100, 14 days after application
How it was run: as §2

[5] = system: redroot pigweed (Amaranthus retroflexus, AMARE); assay: Pre-emerge test, greenhouse herbicide activity screening; details: rating scale 0-100, 14 days after application
How it was run: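 Herbicidal damage is scored 0 (none) to 100 (complete plant death) two weeks after a simulated field spray. Rates span 15–1000 g ai/ha, delivered in acetone at 187 l/ha. For post-emergence treatments, plants have 2–3 leaves and the spray carries 0.25% v/v non-ionic surfactant.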

[6] = system: large crabgrass (Digitaria sanguinalis, DIGSA); assay: as above; details: rating scale 0-100, 14 days after application
How it was run: (§3)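 Compounds in acetone were track-sprayed at 15–1000 g ai/ha: pre-emergence onto soil sown the previous day, then top-watered to incorporate and later bottom-watered; post-emergence onto 2–3 leaf plants with 0.25% v/v surfactant, bottom-watered only. Ratings on a 0–100 phytotoxicity scale were taken at day 14.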

[7] = system: sicklepod (Cassia obtusifolia, CASOB); assay: as above; details: rating scale 0-100, 14 days after application
How it was run: as §3

[8] = system: velvetleaf (Abutilon theophrasti, ABUTH); assay: as above; details: rating scale 0-100, 14 days after application
How it was run: as §3

[9] = system: ivyleaf morningglory (Ipomoea hederacea, IPOHE); assay: as above; details: rating scale 0-100, 14 days after application
How it was run: as §3

[10] = system: green foxtail (Setaria viridis, SETVI); assay: as above; details: rating scale 0-100, 14 days after application
How it was run: as §3

[11] = system: lambsquarters (Chenopodium album, CHEAL); assay: as above; details: rating scale 0-100, 14 days after application
How it was run: as §3

[12] = system: barnyardgrass (Echinochloa crus-galli, ECHCG); assay: as above; details: rating scale 0-100, 14 days after application
How it was run: as §3

[13] = system: johnsongrass (Sorghum halepense, SORHA); assay: as above; details: rating scale 0-100, 14 days after application
How it was run: as §3

[14] = system: redroot pigweed (Amaranthus retroflexus, AMARE); assay: Post-emerge test, greenhouse herbicide activity screening; details: rating scale 0-100 (0 no damage, 100 complete death), 14 days after application
How it was run: as §1

[15] = system: common ragweed (Ambrosia artemisizfolia L., AMBEL); assay: as above; details: rating scale 0-100 (0 no damage, 100 complete death), 14 days after application
How it was run: as §1

[16] = system: large crabgrass (Digitaria sanguinalis, DIGSA); assay: as above; details: rating scale 0-100 (0 no damage, 100 complete death), 14 days after application
How it was run: as §1

[17] = system: sicklepod (Cassia obtusifolia, CASOB); assay: as above; details: rating scale 0-100 (0 no damage, 100 complete death), 14 days after application
How it was run: as §1

[18] = system: velvetleaf (Abutilon theophrasti, ABUTH); assay: as above; details: rating scale 0-100 (0 no damage, 100 complete death), 14 days after application
How it was run: as §1

[19] = system: ivyleaf morningglory (Ipomoea hederacea, IPOHE); assay: as above; details: rating scale 0-100 (0 no damage, 100 complete death), 14 days after application
How it was run: as §1

[20] = system: green foxtail (Setaria viridis, SETVI); assay: as above; details: rating scale 0-100 (0 no damage, 100 complete death), 14 days after application
How it was run: as §1

[21] = system: lambsquarters (Chenopodium album, CHEAL); assay: as above; details: rating scale 0-100 (0 no damage, 100 complete death), 14 days after application
How it was run: as §1

[22] = system: barnyardgrass (Echinochloa crus-galli, ECHCG); assay: as above; details: rating scale 0-100 (0 no damage, 100 complete death), 14 days after application
How it was run: as §1

[23] = system: johnsongrass (Sorghum halepense, SORHA); assay: as above; details: rating scale 0-100 (0 no damage, 100 complete death), 14 days after application
How it was run: as §1

Structure (SMILES): COc1c(Cl)cc(F)c(-n2c(=O)cc(C(F)(F)F)n(C)c2=O)c1CC(Cl)C(=O)OCC(C)C (single isomer, unassigned) [14-15]
- Post-emerge phytotoxicity rating RICE (crop damage) ([1]; Rate 63 g ai/ha): 0
- Post-emerge phytotoxicity rating RICE (crop damage) ([1]; Rate 250 g ai/ha): 0
- Post-emerge phytotoxicity rating CORN (crop damage) ([2]; Rate 63 g ai/ha): 20
- Post-emerge phytotoxicity rating CORN (crop damage) ([2]; Rate 250 g ai/ha): 60
- Pre-emerge phytotoxicity rating, crop damage RICE ([3]; 63 g ai/ha): 0
- Pre-emerge phytotoxicity rating, crop damage RICE ([3]; 250 g ai/ha): 0
- Pre-emerge phytotoxicity rating, crop damage CORN ([4]; 63 g ai/ha): 0
- Pre-emerge phytotoxicity rating, crop damage CORN ([4]; 250 g ai/ha): 0
- Pre-emerge herbicidal activity, phytotoxicity rating AMARE ([5]; 63 g ai/ha): 100
- Pre-emerge herbicidal activity, phytotoxicity rating AMARE ([5]; 250 g ai/ha): 100
- Pre-emerge herbicidal activity, phytotoxicity rating DIGSA ([6]; 63 g ai/ha): 70
- Pre-emerge herbicidal activity, phytotoxicity rating DIGSA ([6]; 250 g ai/ha): 100
- Pre-emerge herbicidal activity, phytotoxicity rating CASOB ([7]; 63 g ai/ha): 0
- Pre-emerge herbicidal activity, phytotoxicity rating CASOB ([7]; 250 g ai/ha): 40
- Pre-emerge herbicidal activity, phytotoxicity rating ABUTH ([8]; 63 g ai/ha): 50
- Pre-emerge herbicidal activity, phytotoxicity rating ABUTH ([8]; 250 g ai/ha): 100
- Pre-emerge herbicidal activity, phytotoxicity rating IPOHE ([9]; 63 g ai/ha): 0
- Pre-emerge herbicidal activity, phytotoxicity rating IPOHE ([9]; 250 g ai/ha): 20
- Pre-emerge herbicidal activity, phytotoxicity rating SETVI ([10]; 63 g ai/ha): 0
- Pre-emerge herbicidal activity, phytotoxicity rating SETVI ([10]; 250 g ai/ha): 30
- Pre-emerge herbicidal activity, phytotoxicity rating CHEAL ([11]; 63 g ai/ha): 20
- Pre-emerge herbicidal activity, phytotoxicity rating CHEAL ([11]; 250 g ai/ha): 95
- Pre-emerge herbicidal activity, phytotoxicity rating ECHCG ([12]; 63 g ai/ha): 0
- Pre-emerge herbicidal activity, phytotoxicity rating ECHCG ([12]; 250 g ai/ha): 80
- Pre-emerge herbicidal activity, phytotoxicity rating SORHA ([13]; 63 g ai/ha): 0
- Pre-emerge herbicidal activity, phytotoxicity rating SORHA ([13]; 250 g ai/ha): 0
- Post-emerge Herbicidal Activity, phytotoxicity rating AMARE ([14]; Rate 63 g ai/ha): 100
- Post-emerge Herbicidal Activity, phytotoxicity rating AMARE ([14]; Rate 250 g ai/ha): 100
- Post-emerge Herbicidal Activity, phytotoxicity rating AMBEL ([15]; Rate 63 g ai/ha): 20
- Post-emerge Herbicidal Activity, phytotoxicity rating AMBEL ([15]; Rate 250 g ai/ha): 100
- Post-emerge Herbicidal Activity, phytotoxicity rating DIGSA ([16]; Rate 63 g ai/ha): 95
- Post-emerge Herbicidal Activity, phytotoxicity rating DIGSA ([16]; Rate 250 g ai/ha): 100
- Post-emerge Herbicidal Activity, phytotoxicity rating CASOB ([17]; Rate 63 g ai/ha): 0
- Post-emerge Herbicidal Activity, phytotoxicity rating CASOB ([17]; Rate 250 g ai/ha): 50
- Post-emerge Herbicidal Activity, phytotoxicity rating ABUTH ([18]; Rate 63 g ai/ha): 60
- Post-emerge Herbicidal Activity, phytotoxicity rating ABUTH ([18]; Rate 250 g ai/ha): 90
- Post-emerge Herbicidal Activity, phytotoxicity rating IPOHE ([19]; Rate 63 g ai/ha): 50
- Post-emerge Herbicidal Activity, phytotoxicity rating IPOHE ([19]; Rate 250 g ai/ha): 90
- Post-emerge Herbicidal Activity, phytotoxicity rating SETVI ([20]; Rate 63 g ai/ha): 70
- Post-emerge Herbicidal Activity, phytotoxicity rating SETVI ([20]; Rate 250 g ai/ha): 80
- Post-emerge Herbicidal Activity, phytotoxicity rating CHEAL ([21]; Rate 63 g ai/ha): 50
- Post-emerge Herbicidal Activity, phytotoxicity rating CHEAL ([21]; Rate 250 g ai/ha): 100
- Post-emerge Herbicidal Activity, phytotoxicity rating ECHCG ([22]; Rate 63 g ai/ha): 100
- Post-emerge Herbicidal Activity, phytotoxicity rating ECHCG ([22]; Rate 250 g ai/ha): 100
- Post-emerge Herbicidal Activity, phytotoxicity rating SORHA ([23]; Rate 63 g ai/ha): 50
- Post-emerge Herbicidal Activity, phytotoxicity rating SORHA ([23]; Rate 250 g ai/ha): 40

Structure (SMILES): CCCOC(=O)C(Cl)Cc1c(OC)c(Cl)cc(F)c1-n1c(=O)cc(C(F)(F)F)n(C)c1=O (single isomer, unassigned) [14-6]
- Post-emerge phytotoxicity rating RICE (crop damage) ([1]; Rate 63 g ai/ha): 0
- Post-emerge phytotoxicity rating RICE (crop damage) ([1]; Rate 250 g ai/ha): 35
- Post-emerge phytotoxicity rating CORN (crop damage) ([2]; Rate 63 g ai/ha): 50
- Post-emerge phytotoxicity rating CORN (crop damage) ([2]; Rate 250 g ai/ha): 60
- Pre-emerge phytotoxicity rating, crop damage RICE ([3]; 63 g ai/ha): 15
- Pre-emerge phytotoxicity rating, crop damage RICE ([3]; 250 g ai/ha): 50
- Pre-emerge phytotoxicity rating, crop damage CORN ([4]; 63 g ai/ha): 0
- Pre-emerge phytotoxicity rating, crop damage CORN ([4]; 250 g ai/ha): 5
- Pre-emerge herbicidal activity, phytotoxicity rating AMARE ([5]; 63 g ai/ha): 100
- Pre-emerge herbicidal activity, phytotoxicity rating AMARE ([5]; 250 g ai/ha): 100
- Pre-emerge herbicidal activity, phytotoxicity rating DIGSA ([6]; 63 g ai/ha): 90
- Pre-emerge herbicidal activity, phytotoxicity rating DIGSA ([6]; 250 g ai/ha): 100
- Pre-emerge herbicidal activity, phytotoxicity rating CASOB ([7]; 63 g ai/ha): 30
- Pre-emerge herbicidal activity, phytotoxicity rating CASOB ([7]; 250 g ai/ha): 30
- Pre-emerge herbicidal activity, phytotoxicity rating ABUTH ([8]; 63 g ai/ha): 30
- Pre-emerge herbicidal activity, phytotoxicity rating ABUTH ([8]; 250 g ai/ha): 100
- Pre-emerge herbicidal activity, phytotoxicity rating IPOHE ([9]; 63 g ai/ha): 10
- Pre-emerge herbicidal activity, phytotoxicity rating IPOHE ([9]; 250 g ai/ha): 20
- Pre-emerge herbicidal activity, phytotoxicity rating SETVI ([10]; 63 g ai/ha): 10
- Pre-emerge herbicidal activity, phytotoxicity rating SETVI ([10]; 250 g ai/ha): 100
- Pre-emerge herbicidal activity, phytotoxicity rating CHEAL ([11]; 63 g ai/ha): 20
- Pre-emerge herbicidal activity, phytotoxicity rating CHEAL ([11]; 250 g ai/ha): 100
- Pre-emerge herbicidal activity, phytotoxicity rating ECHCG ([12]; 63 g ai/ha): 0
- Pre-emerge herbicidal activity, phytotoxicity rating ECHCG ([12]; 250 g ai/ha): 70
- Pre-emerge herbicidal activity, phytotoxicity rating SORHA ([13]; 63 g ai/ha): 0
- Pre-emerge herbicidal activity, phytotoxicity rating SORHA ([13]; 250 g ai/ha): 30
- Post-emerge Herbicidal Activity, phytotoxicity rating AMARE ([14]; Rate 63 g ai/ha): 95
- Post-emerge Herbicidal Activity, phytotoxicity rating AMARE ([14]; Rate 250 g ai/ha): 100
- Post-emerge Herbicidal Activity, phytotoxicity rating AMBEL ([15]; Rate 63 g ai/ha): 40
- Post-emerge Herbicidal Activity, phytotoxicity rating AMBEL ([15]; Rate 250 g ai/ha): 80
- Post-emerge Herbicidal Activity, phytotoxicity rating DIGSA ([16]; Rate 63 g ai/ha): 50
- Post-emerge Herbicidal Activity, phytotoxicity rating DIGSA ([16]; Rate 250 g ai/ha): 75
- Post-emerge Herbicidal Activity, phytotoxicity rating CASOB ([17]; Rate 63 g ai/ha): 50
- Post-emerge Herbicidal Activity, phytotoxicity rating CASOB ([17]; Rate 250 g ai/ha): 100
- Post-emerge Herbicidal Activity, phytotoxicity rating ABUTH ([18]; Rate 63 g ai/ha): 90
- Post-emerge Herbicidal Activity, phytotoxicity rating ABUTH ([18]; Rate 250 g ai/ha): 100
- Post-emerge Herbicidal Activity, phytotoxicity rating IPOHE ([19]; Rate 63 g ai/ha): 70
- Post-emerge Herbicidal Activity, phytotoxicity rating IPOHE ([19]; Rate 250 g ai/ha): 100
- Post-emerge Herbicidal Activity, phytotoxicity rating SETVI ([20]; Rate 63 g ai/ha): 30
- Post-emerge Herbicidal Activity, phytotoxicity rating SETVI ([20]; Rate 250 g ai/ha): 80
- Post-emerge Herbicidal Activity, phytotoxicity rating CHEAL ([21]; Rate 63 g ai/ha): 80
- Post-emerge Herbicidal Activity, phytotoxicity rating CHEAL ([21]; Rate 250 g ai/ha): 100
- Post-emerge Herbicidal Activity, phytotoxicity rating ECHCG ([22]; Rate 63 g ai/ha): 99
- Post-emerge Herbicidal Activity, phytotoxicity rating ECHCG ([22]; Rate 250 g ai/ha): 100
- Post-emerge Herbicidal Activity, phytotoxicity rating SORHA ([23]; Rate 63 g ai/ha): 50
- Post-emerge Herbicidal Activity, phytotoxicity rating SORHA ([23]; Rate 250 g ai/ha): 65
